Assay results published in patent publication US10005774B2, “Syk inhibitors” (Gilead Sciences, Inc., priority 2013, dated 2018).

Biological target: Syk (Homo sapiens, UniProt P43405)
Experiment: High Throughput Syk Biochemical Assay (KinEASE TR-FRET)
Details: table 'ALL NEW COMPOUNDS IN 2014', 20 μM ATP, 1 μM biotinylated peptide, 0.015 nM Syk, 30 min at room temperature, read-out: Syk IC50
In short: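 Two-step endpoint TR-FRET (KinEASE) measured Syk phosphorylation of an XL665-labelled peptide, detected with europium anti-phosphotyrosine antibody. Compounds were serially diluted in DMSO.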

SMILES | IC50 [nM]
C[C@@H](Oc1nc(-c2cnc(C(F)(F)F)s2)cc2ncn(C3CC3)c12)[C@H]1CNC(=O)C1 [(R)-4-((R)-1-((3-cyclopropyl-6-(2-(trifluoromethyl)thiazol-5-yl)-3H-imidazo[4,5-c]pyridin-4-yl)oxy)ethyl)pyrrolidin-2-one] | 67.7
C[C@@H](Oc1nc(-c2ccc(N3CCN(C4COC4)CC3)cc2F)cc2ncn(C3CC3)c12)[C@H]1CNC(=O)C1 [(R)-4-((R)-1-((3-cyclopropyl-6-(2-fluoro-4-(4-(oxetan-3-yl)piperazin-1-yl)phenyl)-3H-imidazo[4,5-c]pyridin-4-yl)oxy)ethyl)pyrrolidin-2-one] | 10.1
Cc1ncc(-c2cc3ncn(C4CC4)c3c(O[C@H](C)[C@H]3CNC(=O)C3)n2)s1 [(R)-4-((R)-1-((3-cyclopropyl-6-(2-methylthiazol-5-yl)-3H-imidazo[4,5-c]pyridin-4-yl)oxy)ethyl)pyrrolidin-2-one] | 10.2
C[C@@H](Oc1nc(-c2cnc(N3CCOCC3)s2)cc2ncn(C3CC3)c12)[C@H]1CNC(=O)C1 [(R)-4-((R)-1-((3-cyclopropyl-6-(2-morpholinothiazol-5-yl)-3H-imidazo[4,5-c]pyridin-4-yl)oxy)ethyl)pyrrolidin-2-one] | 2.13
C[C@@H](Oc1nc(-c2ccc3c(c2)NCC3(C)C)cc2ncn(C3CC3)c12)[C@H]1CNC(=O)C1 [(R)-4-((R)-1-((3-cyclopropyl-6-(3,3-dimethylindolin-6-yl)-3H-imidazo[4,5-c]pyridin-4-yl)oxy)ethyl)pyrrolidin-2-one] | 2.33
CCOc1cc(-c2cc3ncn(C4CC4)c3c(O[C@H](C)[C@H]3CNC(=O)C3)n2)ccc1OC [(R)-4-((R)-1-((3-cyclopropyl-6-(3-ethoxy-4-methoxyphenyl)-3H-imidazo[4,5-c]pyridin-4-yl)oxy)ethyl)pyrrolidin-2-one] | 2.92
C[C@@H](Oc1nc(-c2ccc(N3CCN(S(C)(=O)=O)CC3)c(F)c2)cc2ncn(C3CC3)c12)[C@H]1CNC(=O)C1 [(R)-4-((R)-1-((3-cyclopropyl-6-(3-fluoro-4-(4-(methylsulfonyl)piperazin-1-yl)phenyl)-3H-imidazo[4,5-c]pyridin-4-yl)oxy)ethyl)pyrrolidin-2-one] | 2.02
C[C@@H](Oc1nc(-c2ccc(N3CCN(C4COC4)CC3)c(F)c2)cc2ncn(C3CC3)c12)[C@H]1CNC(=O)C1 [(R)-4-((R)-1-((3-cyclopropyl-6-(3-fluoro-4-(4-(oxetan-3-yl)piperazin-1-yl)phenyl)-3H-imidazo[4,5-c]pyridin-4-yl)oxy)ethyl)pyrrolidin-2-one] | 2.37
Cc1cc(-c2cc3ncn(C4CC4)c3c(O[C@H](C)[C@H]3CNC(=O)C3)n2)ccc1N1CCN(C2COC2)CC1 [(R)-4-((R)-1-((3-cyclopropyl-6-(3-methyl-4-(4-(oxetan-3-yl)piperazin-1-yl)phenyl)-3H-imidazo[4,5-c]pyridin-4-yl)oxy)ethyl)pyrrolidin-2-one] | 1.44
Cc1cc(-c2cc3ncn(C4CC4)c3c(O[C@H](C)[C@H]3CNC(=O)C3)n2)sn1 [(R)-4-((R)-1-((3-cyclopropyl-6-(3-methylisothiazol-5-yl)-3H-imidazo[4,5-c]pyridin-4-yl)oxy)ethyl)pyrrolidin-2-one] | 2.27
C[C@@H](Oc1nc(-c2ccc(C3CCN(C4COC4)CC3)cc2)cc2ncn(C3CC3)c12)[C@H]1CNC(=O)C1 [(R)-4-((R)-1-((3-cyclopropyl-6-(4-(1-(oxetan-3-yl)piperidin-4-yl)phenyl)-3H-imidazo[4,5-c]pyridin-4-yl)oxy)ethyl)pyrrolidin-2-one] | 2.31
COc1cc(-c2cc3ncn(C4CC4)c3c(O[C@H](C)[C@H]3CNC(=O)C3)n2)ccc1OCC(F)F [(R)-4-((R)-1-((3-cyclopropyl-6-(4-(2,2-difluoroethoxy)-3-methoxyphenyl)-3H-imidazo[4,5-c]pyridin-4-yl)oxy)ethyl)pyrrolidin-2-one] | 2.78
C[C@@H](Oc1nc(-c2ccc(N3CCn4c(nnc4C(F)(F)F)C3)cc2)cc2ncn(C3CC3)c12)[C@H]1CNC(=O)C1 [(R)-4-((R)-1-((3-cyclopropyl-6-(4-(3-(trifluoromethyl)-5,6-dihydro-[1,2,4]triazolo[4,3-a]pyrazin-7(8H)-yl)phenyl)-3H-imidazo[4,5-c]pyridin-4-yl)oxy)ethyl)pyrrolidin-2-one] | 2.17
C[C@@H](Oc1nc(-c2ccc(N3CC(N4CCOCC4)C3)cc2)cc2ncn(C3CC3)c12)[C@H]1CNC(=O)C1 [(R)-4-((R)-1-((3-cyclopropyl-6-(4-(3-morpholinoazetidin-1-yl)phenyl)-3H-imidazo[4,5-c]pyridin-4-yl)oxy)ethyl)pyrrolidin-2-one] | 5.69
C[C@@H](Oc1nc(-c2ccc(N3CCN(S(=O)(=O)C4CC4)CC3)cc2)cc2ncn(C3CC3)c12)[C@H]1CNC(=O)C1 [(R)-4-((R)-1-((3-cyclopropyl-6-(4-(4-(cyclopropylsulfonyl)piperazin-1-yl)phenyl)-3H-imidazo[4,5-c]pyridin-4-yl)oxy)ethyl)pyrrolidin-2-one] | 1.3
CCS(=O)(=O)N1CCN(c2ccc(-c3cc4ncn(C5CC5)c4c(O[C@H](C)[C@H]4CNC(=O)C4)n3)cc2)CC1 [(R)-4-((R)-1-((3-cyclopropyl-6-(4-(4-(ethylsulfonyl)piperazin-1-yl)phenyl)-3H-imidazo[4,5-c]pyridin-4-yl)oxy)ethyl)pyrrolidin-2-one] | 1.05
CC(C)S(=O)(=O)N1CCN(c2ccc(-c3cc4ncn(C5CC5)c4c(O[C@H](C)[C@H]4CNC(=O)C4)n3)cc2)CC1 [(R)-4-((R)-1-((3-cyclopropyl-6-(4-(4-(isopropylsulfonyl)piperazin-1-yl)phenyl)-3H-imidazo[4,5-c]pyridin-4-yl)oxy)ethyl)pyrrolidin-2-one] | 1.12
C[C@@H](Oc1nc(-c2ccc(N3CCN(S(=O)(=O)C4COC4)CC3)cc2)cc2ncn(C3CC3)c12)[C@H]1CNC(=O)C1 [(R)-4-((R)-1-((3-cyclopropyl-6-(4-(4-(oxetan-3-ylsulfonyl)piperazin-1-yl)phenyl)-3H-imidazo[4,5-c]pyridin-4-yl)oxy)ethyl)pyrrolidin-2-one] | 1.31
C[C@@H](Oc1nc(-c2ccc(N3CCn4cnnc4C3)cc2)cc2ncn(C3CC3)c12)[C@H]1CNC(=O)C1 [(R)-4-((R)-1-((3-cyclopropyl-6-(4-(5,6-dihydro-[1,2,4]triazolo[4,3-a]pyrazin-7(8H)-yl)phenyl)-3H-imidazo[4,5-c]pyridin-4-yl)oxy)ethyl)pyrrolidin-2-one] | 1.3
COc1cc(-c2cc3ncn(C4CC4)c3c(O[C@H](C)[C@H]3CNC(=O)C3)n2)ccc1OC(F)F [(R)-4-((R)-1-((3-cyclopropyl-6-(4-(difluoromethoxy)-3-methoxyphenyl)-3H-imidazo[4,5-c]pyridin-4-yl)oxy)ethyl)pyrrolidin-2-one] | 5.22
CCOc1ccc(-c2cc3ncn(C4CC4)c3c(O[C@H](C)[C@H]3CNC(=O)C3)n2)cc1OC [(R)-4-((R)-1-((3-cyclopropyl-6-(4-ethoxy-3-methoxyphenyl)-3H-imidazo[4,5-c]pyridin-4-yl)oxy)ethyl)pyrrolidin-2-one] | 2.46
COc1cc(-c2cc3ncn(C4CC4)c3c(O[C@H](C)[C@H]3CNC(=O)C3)n2)cnc1OC [(R)-4-((R)-1-((3-cyclopropyl-6-(5,6-dimethoxypyridin-3-yl)-3H-imidazo[4,5-c]pyridin-4-yl)oxy)ethyl)pyrrolidin-2-one] | 8.38
